{"source": "ChEMBL document CHEMBL6096689", "about": "“Structure-Guided Development of ClpP Agonists with Potent Therapeutic Activities against Staphylococcus aureus Infection” (J Med Chem, 2025)", "key": {"Staphylococcus aureus [1]": {"tested_on": "Staphylococcus aureus", "assay": "microbe, parasite or virus in culture", "assay_type": "functional", "conditions": "USA300, time 18 hrs", "description": "Antibacterial activity against methicillin-resistant Staphylococcus aureus USA300 assessed as inhibition of visible growth of bacteria incubated for 18 hrs by absorbance based analysis"}, "[2]": {"molecular_target": "T1, Cell division protein FtsZ (Staphylococcus aureus) (UniProt P0A031)", "T1 sequence (whole entry)": "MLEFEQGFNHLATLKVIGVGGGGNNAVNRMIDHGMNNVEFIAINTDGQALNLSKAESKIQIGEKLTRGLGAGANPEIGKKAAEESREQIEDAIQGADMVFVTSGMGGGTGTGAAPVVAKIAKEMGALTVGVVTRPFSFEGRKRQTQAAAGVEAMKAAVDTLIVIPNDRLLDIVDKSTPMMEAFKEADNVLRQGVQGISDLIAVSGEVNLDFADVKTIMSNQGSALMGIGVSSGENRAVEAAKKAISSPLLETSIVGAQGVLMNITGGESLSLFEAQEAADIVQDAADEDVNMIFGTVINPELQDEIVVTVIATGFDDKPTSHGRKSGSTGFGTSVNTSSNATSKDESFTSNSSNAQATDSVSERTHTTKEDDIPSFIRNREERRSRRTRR", "assay": "Induction of FtsZ degradation in Staphylococcus aureus 8325-4 incubated for 3 hrs by Western blot analysis", "conditions": "dose 1.25-10 µM"}, "Staphylococcus aureus [3]": {"tested_on": "Staphylococcus aureus", "assay": "microbe, parasite or virus in culture", "assay_type": "functional", "conditions": "NRS-1, time 18 hrs", "description": "Antibacterial activity against methicillin-resistant Staphylococcus aureus NRS-1 assessed as inhibition of visible growth of bacteria incubated for 18 hrs by absorbance based analysis"}, "[4]": {"assay": "Toxicity in female ICR mouse model of peritonitis infected with Staphylococcus aureus USA300 assessed as effect on body weight at 50 mg/kg, ip pre-infected for 1 hrs followed by compound addition and measured after 5 days", "assay_type": "organism-based", "conditions": "in vivo, 120 h, time 5 day"}, "Staphylococcus aureus [5]": {"tested_on": "Staphylococcus aureus", "assay": "Antibacterial activity against Staphylococcus aureus USA300 infected in female ICR mouse peritonitis model assessed as reduction in bacterial load in heart at 25 to 100 mg/kg, ip pre-infected for 1 hrs followed by compound addition and measured after 5 days relative to control", "assay_type": "functional", "conditions": "dose 25-100 mg/kg, time 5 day"}, "Staphylococcus aureus [6]": {"tested_on": "Staphylococcus aureus", "assay": "microbe, parasite or virus in culture", "assay_type": "functional", "conditions": "NRS-271, time 18 hrs", "description": "Antibacterial activity against methicillin-resistant Staphylococcus aureus NRS-271 assessed as inhibition of visible growth of bacteria incubated for 18 hrs by absorbance based analysis"}, "[7]": {"assay": "Therapeutic index, ratio of IC50 for HK-2 cells to MIC for Staphylococcus aureus Newman", "assay_type": "toxicity, cell-based", "conditions": "human, read-out: TI"}, "Staphylococcus aureus [8]": {"tested_on": "Staphylococcus aureus", "assay": "Antibacterial activity against Staphylococcus aureus USA300 infected in female ICR mouse peritonitis model assessed as increase in mouse survival at 25 to 100 mg/kg, ip pre-infected for 1 hrs followed by compound addition and measured after 5 days relative to control", "assay_type": "functional", "conditions": "dose 25-100 mg/kg, time 5 day"}, "Staphylococcus aureus [9]": {"tested_on": "Staphylococcus aureus", "assay": "Antibacterial activity against CLpP complemented Staphylococcus aureus 8325-4 assessed as inhibition of visible growth of bacteria incubated for 18 hrs by absorbance based assay", "assay_type": "functional, organism-based"}, "Staphylococcus aureus [10]": {"tested_on": "Staphylococcus aureus", "assay": "microbe, parasite or virus in culture", "assay_type": "functional", "conditions": "Newman, time 18 hrs", "description": "Antibacterial activity against Staphylococcus aureus Newman assessed as inhibition of visible growth of bacteria incubated for 18 hrs by absorbance based analysis"}, "[11]": {"molecular_target": "T2, ATP-dependent Clp protease proteolytic subunit (Staphylococcus aureus (strain NCTC 8325), UniProt Q2G036)", "T2 sequence (Q2G036 whole entry)": "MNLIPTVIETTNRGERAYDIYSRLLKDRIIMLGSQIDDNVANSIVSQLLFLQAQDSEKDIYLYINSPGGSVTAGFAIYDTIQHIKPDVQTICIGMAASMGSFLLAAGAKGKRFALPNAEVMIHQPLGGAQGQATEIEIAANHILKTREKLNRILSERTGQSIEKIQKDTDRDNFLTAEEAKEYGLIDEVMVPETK", "assay": "Agonist activity at Staphylococcus aureus ClpP extracted from Escherichia coli BL21 (DE3) cells using alpha-casein as substrate assessed as substrate hydrolysis preincubated for 15 mins followed by substrate addition and measured after 2 hrs by SDS-PAGE analysis"}, "Staphylococcus aureus [12]": {"tested_on": "Staphylococcus aureus", "assay": "microbe, parasite or virus in culture", "assay_type": "functional", "conditions": "NRS-108, time 18 hrs", "description": "Antibacterial activity against methicillin-resistant Staphylococcus aureus NRS-108 assessed as inhibition of visible growth of bacteria incubated for 18 hrs by absorbance based analysis"}, "Staphylococcus aureus [13]": {"tested_on": "Staphylococcus aureus", "assay": "microbe, parasite or virus in culture", "assay_type": "functional", "conditions": "time 18 hrs", "description": "Antibacterial activity against multidrug-resistant Staphylococcus aureus clinical isolate XJ009 assessed as inhibition of visible growth of bacteria incubated for 18 hrs by absorbance based analysis"}, "[14]": {"molecular_target": "T3, ATP-dependent Clp protease proteolytic subunit (Staphylococcus aureus (strain NCTC 8325)) (UniProt Q2G036)", "T3 sequence (whole entry)": "T2 sequence (Q2G036 whole entry)", "assay": "Potency index, ratio of ONC212 EC50 to test compound EC50 for agonist activity at Staphylococcus aureus ClpP extracted from Escherichia coli BL21 (DE3) cells using FITC-casein as substrate assessed as substrate hydrolysis preincubated for 60 mins followed by substrate addition and measured after 1 hrs by fluorescence based analysis", "conditions": "time 120.0 min"}}, "note": "Activity calls are given as the source filed them. No cut-off for these calls is given here.", "data": [{"smiles": "CC[C@H](C)[C@H]1C(=O)N(Cc2ccc(OC)c3ccccc23)C[C@@H]2N(C(=O)NCCCC(F)(F)F)CCC(=O)N12", "values": [{"measurement": "MIC", "setting": "Staphylococcus aureus [1]", "value": 0.06, "unit": "µg/mL"}, {"measurement": "Activity", "setting": "[2]", "value": "Dose-dependent-effect"}, {"measurement": "MIC", "setting": "Staphylococcus aureus [3]", "value": 0.13, "unit": "µg/mL"}, {"measurement": "Activity", "setting": "[4]", "value": "Non-toxic"}, {"measurement": "Activity", "setting": "Staphylococcus aureus [5]", "value": 2, "unit": "log10CFU/g"}, {"measurement": "MIC", "setting": "Staphylococcus aureus [6]", "value": 0.06, "unit": "µg/mL"}, {"measurement": "selectivity ratio", "setting": "[7]", "value": 180}, {"measurement": "Activity", "setting": "Staphylococcus aureus [8]", "value": 89, "unit": "%"}, {"measurement": "Activity", "setting": "Staphylococcus aureus [9]", "value": "Active"}, {"measurement": "MIC", "setting": "Staphylococcus aureus [10]", "value": 0.063, "unit": "µg/mL"}, {"measurement": "EC50", "setting": "[11]", "value": 1100, "unit": "nM"}, {"measurement": "MIC", "setting": "Staphylococcus aureus [12]", "value": 0.06, "unit": "µg/mL"}, {"measurement": "MIC", "setting": "Staphylococcus aureus [13]", "value": 0.06, "unit": "µg/mL"}, {"measurement": "Ratio EC50", "setting": "[14]", "value": 2.2}]}]}
